In paper PMC4890880 (ACS infectious diseases, 2016):
pIC50: −log10 of the molar value. Read-outs that look alike come from different tables or passages of the source.

Experiments:
HepG2-A16-CD81EGFP cells = settings: for pIC50: read-out: Tox_IC50, HepG2 cytotoxicity
[1] = tested on: Plasmodium berghei (Pb-Luc) exoerythrocytic-stage parasites; settings: for pIC50: read-out: PbLuc_IC50
[2] = 2nd round, maximal inhibition in dose series
[3] = sheet 2nd round, maximal inhibition in dose response
[4] = first series, fraction of control
[5] = second series, fraction of control

## C[C@@H]1CCCCO[C@H](CN(C)S(=O)(=O)c2ccc(F)cc2)[C@H](C)CN([C@@H](C)CO)C(=O)c2cc(N(C)C)ccc2O1 [BRD-K77718491-001-01-4]
HepG2-A16-CD81EGFP cells; sheet "2nd round"
  pIC50: < 5.00
  Tox_max_inhibition (%): 7%
[1]; concentration 0.000508053, first series
  normalised signal at concentration 0.000508053 (first series): 0.8436
[1]; concentration 0.000508053, second series
  normalised signal at concentration 0.000508053 (second series): 0.9419
[1]; concentration 0.00152416, first series
  normalised signal at concentration 0.00152416 (first series): 1.131
[1]; concentration 0.00152416, second series
  normalised signal at concentration 0.00152416 (second series): 0.8322
[1]; concentration 0.00457247, first series
  normalised signal at concentration 0.00457247 (first series): 0.8284
[1]; concentration 0.00457247, second series
  normalised signal at concentration 0.00457247 (second series): 0.9071
[1]; concentration 0.0137174, first series
  normalised signal at concentration 0.0137174 (first series): 1.006
[1]; concentration 0.0137174, second series
  normalised signal at concentration 0.0137174 (second series): 0.921
[1]; concentration 0.0411523, first series
  normalised signal at concentration 0.0411523 (first series): 0.8082
[1]; concentration 0.0411523, second series
  normalised signal at concentration 0.0411523 (second series): 0.9497
[1]; concentration 0.123457, first series
  normalised signal at concentration 0.123457 (first series): 0.9873
[1]; concentration 0.123457, second series
  normalised signal at concentration 0.123457 (second series): 0.8645
[1]; concentration 0.37037, first series
  normalised signal at concentration 0.37037 (first series): 0.8615
[1]; concentration 0.37037, second series
  normalised signal at concentration 0.37037 (second series): 0.9228
[1]; concentration 1.11111, first series
  normalised signal at concentration 1.11111 (first series): 0.9968
[1]; concentration 1.11111, second series
  normalised signal at concentration 1.11111 (second series): 0.8769
[1]; concentration 3.33333, first series
  normalised signal at concentration 3.33333 (first series): 0.7967
[1]; concentration 3.33333, second series
  normalised signal at concentration 3.33333 (second series): 1.06
[1]; concentration 10, first series of dose columns
  normalised signal at concentration 10 (first series): 0.9825
[1]; concentration 10, second series of dose columns
  normalised signal at concentration 10 (second series): 0.8275
[1]; sheet "2nd round", Broad compounds, dose response top concentration 10
  pIC50: < 5.00
[1]; sheet "2nd round"
  PbLuc_max_inhibition (%): 20%

## COc1ccc(NC(=O)N(C)C[C@H]2Oc3ccc(NC(=O)Nc4cccc5ccccc45)cc3CC(=O)N([C@@H](C)CO)C[C@@H]2C)cc1 [BRD-K15104969-001-01-5]
HepG2-A16-CD81EGFP cells; [2]
  Tox_max_inhibition (%): 14%
HepG2-A16-CD81EGFP cells; 2nd round, unit inferred
  pIC50: < 5.00
[1]; [2]
  PbLuc_max_inhibition (%): 44%
[1]; concentration 0.000508053, first replicate series, fraction of control
  normalized signal at 0.000508053 (first series): 0.969
[1]; concentration 0.000508053, second replicate series, fraction of control
  normalized signal at 0.000508053 (second series): 0.7927
[1]; concentration 0.00152416, first replicate series, fraction of control
  normalized signal at 0.00152416 (first series): 1.086
[1]; concentration 0.00152416, second replicate series, fraction of control
  normalized signal at 0.00152416 (second series): 0.9921
[1]; concentration 0.00457247, first replicate series, fraction of control
  normalized signal at 0.00457247 (first series): 0.8915
[1]; concentration 0.00457247, second replicate series, fraction of control
  normalized signal at 0.00457247 (second series): 0.8364
[1]; concentration 0.0137174, first replicate series, fraction of control
  normalized signal at 0.0137174 (first series): 1.267
[1]; concentration 0.0137174, second replicate series, fraction of control
  normalized signal at 0.0137174 (second series): 0.9174
[1]; concentration 0.0411523, first replicate series, fraction of control
  normalized signal at 0.0411523 (first series): 0.9934
[1]; concentration 0.0411523, second replicate series, fraction of control
  normalized signal at 0.0411523 (second series): 0.8265
[1]; concentration 0.123457, first replicate series, fraction of control
  normalized signal at 0.123457 (first series): 1.28
[1]; concentration 0.123457, second replicate series, fraction of control
  normalized signal at 0.123457 (second series): 0.8011
[1]; concentration 0.37037, first replicate series, fraction of control
  normalized signal at 0.37037 (first series): 0.9047
[1]; concentration 0.37037, second replicate series, fraction of control
  normalized signal at 0.37037 (second series): 0.8073
[1]; concentration 1.11111, first replicate series, fraction of control
  normalized signal at 1.11111 (first series): 0.8441
[1]; concentration 1.11111, second replicate series, fraction of control
  normalized signal at 1.11111 (second series): 0.8236
[1]; concentration 3.33333, first replicate series, fraction of control
  normalized signal at 3.33333 (first series): 0.7436
[1]; concentration 3.33333, second replicate series, fraction of control
  normalized signal at 3.33333 (second series): 1.005
[1]; concentration 10, first replicate series, fraction of control
  normalized signal at 10 (first series): 0.5627
[1]; concentration 10, second replicate series, fraction of control
  normalized signal at 10 (second series): 0.5558
[1]; 2nd round, Broad DOS compounds, unit not printed (dose series head 10 to 0.000508053)
  pIC50: < 5.00

## COc1cccc(CN2[C@H](CO)[C@@H](c3ccccc3)C23CN(Cc2ccccc2OC)C3)c1 [BRD-K58149752-001-01-9]
HepG2-A16-CD81EGFP cells; sheet 2nd round
  pIC50: < 5.00
HepG2-A16-CD81EGFP cells; [3]
  Tox_max_inhibition (%): 12%
[1]; first series of dose-response columns, fraction of control
  normalized signal at concentration 10: 0.43
[1]; [4]
  normalized signal at concentration 0.000508053: 0.95
  normalized signal at concentration 0.00152416: 0.91
  normalized signal at concentration 0.00457247: 0.80
  normalized signal at concentration 0.0137174: 0.89
  normalized signal at concentration 0.0411523: 0.73
  normalized signal at concentration 0.123457: 1.00
  normalized signal at concentration 0.37037: 0.78
  normalized signal at concentration 1.11111: 1.22
  normalized signal at concentration 3.33333: 1.08
[1]; sheet 2nd round, Broad compounds, dose response
  pIC50: < 5.00
[1]; second series of dose-response columns, fraction of control
  normalized signal at concentration 10: 0.60
[1]; [5]
  normalized signal at concentration 0.000508053: 0.82
  normalized signal at concentration 0.00152416: 0.84
  normalized signal at concentration 0.00457247: 0.88
  normalized signal at concentration 0.0137174: 0.90
  normalized signal at concentration 0.0411523: 1.01
  normalized signal at concentration 0.123457: 0.92
  normalized signal at concentration 0.37037: 0.85
  normalized signal at concentration 1.11111: 0.92
  normalized signal at concentration 3.33333: 0.98
[1]; [3]
  PbLuc_max_inhibition (%): 57%
